Values joined by “and” are separate entries in the source; they are usually repeats but may differ in a detail not shown here. Identical values can stand only once.
Biological target: T1, PfCRT^Dd2_H97Y_F145I (Plasmodium falciparum, UniProt Q8IBZ9, A220S/F145I/H97Y/I356T/K76T/M74I/N326S/N75E/Q271E/R371I)
T1 construct: expressed in transfected cells; host or cells: Xenopus laevis oocytes injected with in vitro transcribed RNA
T1 sequence (Q8IBZ9 1-424 M74I/N75E/K76T/H97Y/F145I/A220S/Q271E/N326S/I356T/R371I): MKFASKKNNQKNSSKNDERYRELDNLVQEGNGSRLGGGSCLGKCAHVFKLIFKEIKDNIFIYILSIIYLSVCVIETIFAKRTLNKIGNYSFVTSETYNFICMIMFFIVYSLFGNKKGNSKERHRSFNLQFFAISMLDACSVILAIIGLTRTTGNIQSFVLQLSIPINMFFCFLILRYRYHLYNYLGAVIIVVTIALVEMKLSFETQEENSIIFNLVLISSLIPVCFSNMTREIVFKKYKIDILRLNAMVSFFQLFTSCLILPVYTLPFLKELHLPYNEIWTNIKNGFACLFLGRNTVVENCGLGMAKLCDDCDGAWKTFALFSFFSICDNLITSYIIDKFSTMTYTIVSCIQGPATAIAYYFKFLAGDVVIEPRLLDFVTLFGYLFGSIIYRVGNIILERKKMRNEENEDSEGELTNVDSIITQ
Assay: Radiolabeled drug uptake in X. laevis oocytes expressing PfCRT^Dd2_H97Y_F145I
Type: cell-based
Settings: for PfCRTDd2_H97Y_F145I-mediated CQ transport / PfCRTDd2_H97Y_F145I-mediated PPQ transport: individual replicates (Fig 11); for Hc, Hill coefficient / Vmax, maximal velocity of drug transport / Km: Hill equation fit, 10-500 μM drug, pH 6; for Km: read-out: KM, Michaelis constant
Method: Adult female X. laevis frogs (purchased from NASCO) were anesthetized by submersion in a solution of 0.3% (w/v) 3-amino benzoate methanesulfonate for 15 min. Sections of the ovary were surgically removed and placed in Ca^2+-free ND96 buffer supplemented with 0.1% collagenase D (w/v; Roche), 0.5% BSA (w/v) and 9 mM Na2HPO4 at 18°C for 14–16 h while gently shaking. The oocytes were then washed several times with ND96 buffer (5 mM HEPES, pH 7.5, 96 mM NaCl, 2 mM KCl, 1.8 mM CaCl2, 1 mM MgCl2), supplemented with […] gentamycin. Healthy-looking stage V-VI oocytes were manually selected and randomly grouped for injection. A codon-optimized coding sequence of PfCRT was subcloned into the pSP64T expression vector and subsequently linearized using the restriction endonuclease BamHI or SalI (New England Biolabs GmbH). RNA for injection was transcribed in vitro using the mMESSAGE mMACHINE SP6 Transcription kit (Ambion), diluted with nuclease-free water to a final concentration of 0.6 μg/μL and stored at -80°C. RNA was injected using precision-bore glass capillary tubes (3.5-inch glass capillaries; Drummond Scientific Co.), which were pulled on a vertical puller (P-87 Flaming/Brown micropipette puller, Sutter Instrument Co.) and graduated. The micropipettes were connected to a microinjector (Nanoject II Auto-Nanoliter Injector, Drummond Scientific Co.). Injection was conducted under stereomicroscopic control. 50 nL of nuclease-free water alone (control oocytes) or 50 nL of nuclease-free water containing 30 ng of RNA was injected per oocyte. Injected oocytes were kept for 72 h at 18°C in ND96 buffer with two daily buffer changes before being used for further experiments.
Drug transport assays were performed as previously described. Briefly, measurements of radiolabeled drug uptake were made over 1 h, unless otherwise specified. […] Where specified, one or more unlabeled drugs were also present at the indicated concentrations. […] The uptake assays were terminated by removing the oocytes from the reaction medium and washing them three times with 2 mL of ice-cold ND96 buffer. Each oocyte was transferred to a separate scintillation vial and lysed by the addition of 200 μL of a 5% SDS solution. The radioactivity in the sample was measured using a liquid scintillation analyser Tri-Carb 4910 TR (PerkinElmer). Water-injected oocytes were analyzed in parallel as a negative control. The buffer from each condition was measured in duplicate in parallel to each experiment to transform counts per minute into pmol of drug. Drug uptake attributable to PfCRT was determined by subtracting the background uptake from water-injected oocytes from that of PfCRT-expressing oocytes. In all cases, at least three independent experiments were performed on oocytes from different frogs, and for each condition in an experiment, measurements were made from 10 oocytes per treatment.

| Structure (SMILES) | PfCRTDd2_H97Y_F145I-mediated CQ transport (10 µM CQ) | PfCRTDd2_H97Y_F145I-mediated CQ transport (50 µM CQ) | PfCRTDd2_H97Y_F145I-mediated CQ transport (100 µM CQ) | PfCRTDd2_H97Y_F145I-mediated CQ transport (200 µM CQ) | PfCRTDd2_H97Y_F145I-mediated CQ transport (300 µM CQ) | PfCRTDd2_H97Y_F145I-mediated CQ transport (400 µM CQ) | PfCRTDd2_H97Y_F145I-mediated CQ transport (500 µM CQ) | Hc, Hill coefficient | Vmax, maximal velocity of drug transport | Km | PfCRTDd2_H97Y_F145I-mediated PPQ transport (10 µM PPQ) | PfCRTDd2_H97Y_F145I-mediated PPQ transport (50 µM PPQ) | PfCRTDd2_H97Y_F145I-mediated PPQ transport (100 µM PPQ) | PfCRTDd2_H97Y_F145I-mediated PPQ transport (200 µM PPQ) | PfCRTDd2_H97Y_F145I-mediated PPQ transport (300 µM PPQ) | PfCRTDd2_H97Y_F145I-mediated PPQ transport (400 µM PPQ) | PfCRTDd2_H97Y_F145I-mediated PPQ transport (500 µM PPQ) |
| --- | --- | --- | --- | --- | --- | --- | --- | --- | --- | --- | --- | --- | --- | --- | --- | --- | --- |
| CCN(CC)CCCC(C)Nc1ccnc2cc(Cl)ccc12 (centres unmarked) [CQ, chloroquine] | 0.56 pmol oocyte-1 h-1 and 0.57 pmol oocyte-1 h-1 and 0.94 pmol oocyte-1 h-1 | 1.87 pmol oocyte-1 h-1 and 2.38 pmol oocyte-1 h-1 and 2.20 pmol oocyte-1 h-1 and 4.15 pmol oocyte-1 h-1 | 6.01 pmol oocyte-1 h-1 and 3.76 pmol oocyte-1 h-1 and 7.81 pmol oocyte-1 h-1 and 7.54 pmol oocyte-1 h-1 and 7.03 pmol oocyte-1 h-1 | 12.93 pmol oocyte-1 h-1 and 22.31 pmol oocyte-1 h-1 and 9.72 pmol oocyte-1 h-1 and 19.44 pmol oocyte-1 h-1 and 15.86 pmol oocyte-1 h-1 | 22.26 pmol oocyte-1 h-1 and 28.62 pmol oocyte-1 h-1 and 11.32 pmol oocyte-1 h-1 and 17.61 pmol oocyte-1 h-1 | 20.46 pmol oocyte-1 h-1 and 24.94 pmol oocyte-1 h-1 and 27.66 pmol oocyte-1 h-1 | 23.29 pmol oocyte-1 h-1 and 35.24 pmol oocyte-1 h-1 and 26.54 pmol oocyte-1 h-1 and 24.00 pmol oocyte-1 h-1 | 1.6 ± 0.2 | 35 ± 1 pmol oocyte^-1 h^-1 and 35 ± 4 pmol oocyte^-1 h^-1 | 240 ± 40 µM |  |  |  |  |  |  |  |
| Clc1ccc2c(N3CCN(CCCN4CCN(c5ccnc6cc(Cl)ccc56)CC4)CC3)ccnc2c1 [PPQ, piperaquine] |  |  |  |  |  |  |  | 2.0 ± 0.3 | 131 ± 3 pmol oocyte^-1 h^-1 and 131 ± 10 pmol oocyte^-1 h^-1 | 170 ± 20 µM | 4.45 pmol oocyte-1 h-1 and 2.50 pmol oocyte-1 h-1 and 6.51 pmol oocyte-1 h-1 | 12.64 pmol oocyte-1 h-1 and 8.74 pmol oocyte-1 h-1 and 25.96 pmol oocyte-1 h-1 and 14.99 pmol oocyte-1 h-1 and 20.94 pmol oocyte-1 h-1 | 28.86 pmol oocyte-1 h-1 and 38.51 pmol oocyte-1 h-1 and 10.62 pmol oocyte-1 h-1 and 34.53 pmol oocyte-1 h-1 | 112.27 pmol oocyte-1 h-1 and 50.98 pmol oocyte-1 h-1 and 60.86 pmol oocyte-1 h-1 and 71.21 pmol oocyte-1 h-1 and 85.02 pmol oocyte-1 h-1 | 111.40 pmol oocyte-1 h-1 and 72.67 pmol oocyte-1 h-1 and 112.81 pmol oocyte-1 h-1 and 115.57 pmol oocyte-1 h-1 | 94.84 pmol oocyte-1 h-1 and 111.83 pmol oocyte-1 h-1 and 131.05 pmol oocyte-1 h-1 | 81.84 pmol oocyte-1 h-1 and 171.24 pmol oocyte-1 h-1 and 123.65 pmol oocyte-1 h-1 and 87.38 pmol oocyte-1 h-1 |

From article PMC10281575, “PfCRT mutations conferring piperaquine resistance in falciparum malaria shape the kinetics of quinoline drug binding and transport” (PLOS Pathogens, 2023)
